Laboratory results: patent publication US20250204528A1, “USE OF 2-AMINO-3-INDOLYL BUTYRIC ACID OR 3-METHYLPYRROLIDINE-2-CARBOXYLIC ACID AS PLANT IMMUNITY ELICITOR” (NANJING TIANNONG BIOTECHNOLOGY CO., LTD, priority 2021, published 2025)

Legend:
Format in all cases: in vivo
Arabidopsis thaliana = Arabidopsis thaliana under high temperature stress; set-up: Heat damage index: scale not given here; details: for Heat damage index: 45° C. 12 h, recovery 7 d; for PIABS: photosynthetic performance index after 45° C. 12 h; for Heat damage index reduced by: vs control group
Protocol: Arabidopsis thaliana seeds were sown in a pot with the diameter of 8.5 cm according to about 50 seeds per pot and planted in a greenhouse at 25° C. with the humidity of 60%-70% and the light intensity of 100 μmolm^−2s^−1 (16 h light/8 h dark). The treatment was started when the Arabidopsis thaliana normally grew for 21 d. Concentrations at 0 nm, 1 nm, 10 nm, 100 nm and 1,000 nm were set in the experiment. Meanwhile, 0.02% Tween 20 was added as a surfactant and four replicates were set. The spraying treatment was the same as that of the ryegrass in example 5. 24 h after the second spraying, the Arabidopsis thaliana was transferred to an illumination incubator at 45° C. for a high temperature stress treatment for 12 h. The chlorophyll fluorescences of the Arabidopsis thaliana leaf wafers were measured by using the plant efficiency Handy-PEA. The plants were taken out and transferred to the greenhouse at 25° C. for recovery for 7 d. The damage conditions of the plants were observed and counted, and the heat damage grades were calculated.

hydroponic wheat = test: Wheat under drought stress (25% PEG-6000); details: for Drought damage index (%) / Dry weight(g) Overground part / Dry weight(g) Underground part / Fresh weight (g) Overground part / Fresh weight (g) Underground part / Root length (cm): 25% PEG-6000 6 d, recovery 7 d; for Drought damage index reduced by / Fresh weight of the overground part improved by / Fresh weight of the underground part improved by / Root length of the wheat seedlings increased by: compared with the control group
Protocol: A 6-mesh sieve was used as a container to hydroponic wheat, 50 grains were sieved each time, a ½ Hoagland nutrient solution was replaced every other two days, a 2-amino-3-indolyl butyric acid solution was sprayed on the leaf surfaces when the wheat grew to a stage of two true leaves and one terminal bud, wherein the concentrations of 2-amino-3-indolyl butyric acid were 0 nm, 100 nm and 1,000 nm, and meanwhile, 0.02% of Tween-20 was added as a surfactant. After continuously spraying for two days, on the third day, the hydroponic nutrient solution was replaced with a ½ Hoagland nutrient solution containing 25% PEG-6000 to perform a stress treatment, a rehydration treatment was performed after the drought stress for 6 d, the wheat recovered to grow for 7 d in a normal nutrient solution, a drought damage index was observed and determined, and the root length and biomass were determined.
The performance characteristics of the leaves subjected to the drought damage were similar to those of the leaves subjected to a salt damage. The drought damage rate and the drought damage index were introduced by using the evaluation index of the salt damage, a drought damage index formula was as follows, and the drought damage grading standard was shown in table 16.

"Sikang 1" cotton = test: Cotton under salt stress (100 mM NaCl); details: 100 mM NaCl three days; for Mortality (%): cotton plants
Protocol: An experimental material was “Sikang 1” cotton which was hydroponic in a 500-mL plastic cup, and a ½ Hoagland nutrient solution was replaced every other two days. When the cotton seedling grew until the second true leaves were completely unfolded, a 2-amino-3-indolyl butyric acid solution was sprayed on the leaf surfaces. Concentrations at 0 nm, 1 nm, 10 nm, 100 nm and 1,000 nm were set in the experiment. Meanwhile, 0.02% Tween 20 was added as a surfactant. The solution was sprayed every 24 h for 2 times and NaCl was added into a ½ Hoagland nutrient solution the next day after the treatment to make the final concentration of 100 mM to perform a salt stress treatment. Each treatment was performed in three replicates. A rehydration treatment was performed after three days of the salt stress. The salt damage symptoms of the cotton were observed and a salt damage index was calculated by using a calculation formula as follows.

SMILES | Heat damage index (Arabidopsis thaliana; 1 nm) | PIABS (Arabidopsis thaliana; 1 nm) | Heat damage index (Arabidopsis thaliana; 10 nm) | PIABS (Arabidopsis thaliana; 10 nm) | Heat damage index (Arabidopsis thaliana; 100 nm) | PIABS (Arabidopsis thaliana; 100 nm) | PIABS increased by (times) compared with the control group (Arabidopsis thaliana; 1,000 nm) | Heat damage index (Arabidopsis thaliana; 1,000 nm) | PIABS (Arabidopsis thaliana; 1,000 nm) | Heat damage index reduced by (Arabidopsis thaliana; 1,000 nm) | Drought damage index (%) (hydroponic wheat; 100 nm) | Dry weight(g) Overground part (hydroponic wheat; 100 nm) | Dry weight(g) Underground part (hydroponic wheat; 100 nm) | Fresh weight (g) Overground part (hydroponic wheat; 100 nm) | Fresh weight (g) Underground part (hydroponic wheat; 100 nm) | Root length (cm) (hydroponic wheat; 100 nm) | Drought damage index (%) (hydroponic wheat; 1,000 nm) | Dry weight(g) Overground part (hydroponic wheat; 1,000 nm) | Dry weight(g) Underground part (hydroponic wheat; 1,000 nm) | Fresh weight (g) Overground part (hydroponic wheat; 1,000 nm) | further results
CC(c1c[nH]c2ccccc12)C(N)C(=O)O (centres unmarked) | 58 | 0.90 ± 0.04e | 46 | 1.14 ± 0.15 days | 33 | 3.28 ± 0.20c | 20 times | 10 | 7.13 ± 0.23b | 65% | 44% | 0.82 ± 0.01b g | 0.35 ± 0.01a g | 7.28 ± 0.05b g | 3.66 ± 0.01b g | 13.97 ± 0.03a cm | 24% | 0.90 ± 0.05a g | 0.38 ± 0.01a g | 8.87 ± 0.09a g | Fresh weight (g) Underground part (hydroponic wheat; 1,000 nm): 4.51 ± 0.02a g; Root length (cm) (hydroponic wheat; 1,000 nm): 14.60 ± 0.01a cm; Drought damage index reduced by (hydroponic wheat; 1,000 nm): 44%; Fresh weight of the overground part improved by (hydroponic wheat; 1,000 nm): 44.93%; Fresh weight of the underground part improved by (hydroponic wheat; 1,000 nm): 54.98%; Root length of the wheat seedlings increased by (hydroponic wheat; 1,000 nm): 10.86%; Salt damage index (%) ("Sikang 1" cotton; 1 nm): 63%; Mortality (%) ("Sikang 1" cotton; 1 nm): 45%; Salt damage index (%) ("Sikang 1" cotton; 10 nm): 57%; Mortality (%) ("Sikang 1" cotton; 10 nm): 43%; Salt damage index (%) ("Sikang 1" cotton; 100 nm): 53%; Mortality (%) ("Sikang 1" cotton; 100 nm): 33%; Salt damage index (%) ("Sikang 1" cotton; 1,000 nm): 44%; Mortality (%) ("Sikang 1" cotton; 1,000 nm): 27%
CC1CCNC1C(=O)O (centres unmarked) [3-methylpyrrolidine-2-carboxylic acid] | 48 | 1.87 ± 0.03e | 37 | 4.06 ± 0.17 days | 30 | 6.53 ± 0.23c | 23 times | 8 | 10.26 ± 0.46b | 68% | 39% | 0.98 ± 0.07b g | 0.47 ± 0.05b g | 7.83 ± 0.10b g | 3.85 ± 0.05b g | 14.50 ± 0.21b cm | 20% | 1.11 ± 0.06a g | 0.55 ± 0.03a g | 9.12 ± 0.13a g | Fresh weight (g) Underground part (hydroponic wheat; 1,000 nm): 4.67 ± 0.11a g; Root length (cm) (hydroponic wheat; 1,000 nm): 15.03 ± 0.31a cm; Drought damage index reduced by (hydroponic wheat; 1,000 nm): 61%; Fresh weight of the overground part improved by (hydroponic wheat; 1,000 nm): 44.08%; Fresh weight of the underground part improved by (hydroponic wheat; 1,000 nm): 36.55%; Root length of the wheat seedlings increased by (hydroponic wheat; 1,000 nm): 12.58%; Salt damage index (%) ("Sikang 1" cotton; 1 nm): 67%; Mortality (%) ("Sikang 1" cotton; 1 nm): 47%; Salt damage index (%) ("Sikang 1" cotton; 10 nm): 54%; Mortality (%) ("Sikang 1" cotton; 10 nm): 42%; Salt damage index (%) ("Sikang 1" cotton; 100 nm): 49%; Mortality (%) ("Sikang 1" cotton; 100 nm): 28%; Salt damage index (%) ("Sikang 1" cotton; 1,000 nm): 39%; Mortality (%) ("Sikang 1" cotton; 1,000 nm): 24%
